Test results reported in paper PMC7368294 (Proceedings of the National Academy of Sciences of the …, 2020).
pEC50: −log10 of the molar value.

What was measured:
Experiment in all cases: cell-based
Set-up in all cases: species or system Xenopus laevis oocytes
[1] = biological target: T1, Amα1/Amα8/Amβ1 nAChR (Apis mellifera, UniProt A0A7M7MMZ9+A0A8U0WQ70+A0A8U0WQC0)
T1 sequence (A0A7M7MMZ9 44-627): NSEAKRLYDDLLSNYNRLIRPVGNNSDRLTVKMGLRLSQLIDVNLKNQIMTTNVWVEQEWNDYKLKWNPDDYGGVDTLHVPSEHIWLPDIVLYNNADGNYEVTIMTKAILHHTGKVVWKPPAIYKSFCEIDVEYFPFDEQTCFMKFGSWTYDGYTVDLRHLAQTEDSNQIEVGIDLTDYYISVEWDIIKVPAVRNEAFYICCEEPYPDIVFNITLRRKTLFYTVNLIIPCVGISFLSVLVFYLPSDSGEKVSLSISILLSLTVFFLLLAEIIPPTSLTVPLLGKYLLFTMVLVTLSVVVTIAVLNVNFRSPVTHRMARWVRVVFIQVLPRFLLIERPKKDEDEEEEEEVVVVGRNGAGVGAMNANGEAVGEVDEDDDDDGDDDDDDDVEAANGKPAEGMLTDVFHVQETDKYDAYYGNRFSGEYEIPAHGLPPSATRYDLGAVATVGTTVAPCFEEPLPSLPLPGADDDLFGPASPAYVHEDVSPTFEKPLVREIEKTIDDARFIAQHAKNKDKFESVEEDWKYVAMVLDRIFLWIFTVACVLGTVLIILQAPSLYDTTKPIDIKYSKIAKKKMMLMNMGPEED
T1 sequence (A0A8U0WQ70 25-537): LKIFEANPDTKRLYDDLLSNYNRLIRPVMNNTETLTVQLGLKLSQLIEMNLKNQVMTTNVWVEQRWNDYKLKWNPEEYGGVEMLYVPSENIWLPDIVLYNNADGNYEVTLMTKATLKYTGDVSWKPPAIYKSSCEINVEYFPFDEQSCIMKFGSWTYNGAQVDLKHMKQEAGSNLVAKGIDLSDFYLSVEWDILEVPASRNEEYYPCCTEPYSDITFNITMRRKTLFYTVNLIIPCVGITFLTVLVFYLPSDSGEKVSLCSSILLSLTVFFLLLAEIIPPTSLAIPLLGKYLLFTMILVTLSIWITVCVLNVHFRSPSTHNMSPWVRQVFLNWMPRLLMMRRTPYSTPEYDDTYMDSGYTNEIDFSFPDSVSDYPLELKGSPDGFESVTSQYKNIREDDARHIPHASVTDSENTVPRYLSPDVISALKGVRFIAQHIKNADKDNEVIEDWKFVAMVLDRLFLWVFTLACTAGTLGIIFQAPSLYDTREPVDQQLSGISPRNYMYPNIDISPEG
T1 sequence (A0A8U0WQC0 25-520): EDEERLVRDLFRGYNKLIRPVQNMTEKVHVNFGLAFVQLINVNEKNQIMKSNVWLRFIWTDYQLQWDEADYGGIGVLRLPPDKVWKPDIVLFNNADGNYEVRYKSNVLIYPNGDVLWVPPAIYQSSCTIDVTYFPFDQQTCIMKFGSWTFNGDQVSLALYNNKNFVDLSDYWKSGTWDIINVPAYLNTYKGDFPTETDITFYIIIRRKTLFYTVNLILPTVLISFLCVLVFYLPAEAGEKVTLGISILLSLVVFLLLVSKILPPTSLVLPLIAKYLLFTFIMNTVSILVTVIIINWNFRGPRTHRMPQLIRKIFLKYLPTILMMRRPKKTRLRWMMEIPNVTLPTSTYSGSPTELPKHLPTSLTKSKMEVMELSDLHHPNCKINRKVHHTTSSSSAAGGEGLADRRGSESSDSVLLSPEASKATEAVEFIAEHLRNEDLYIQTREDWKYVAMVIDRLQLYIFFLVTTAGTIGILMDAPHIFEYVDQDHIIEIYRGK

[2] = biological target: Btα1/Btα2/Btα8/Btβ1 nAChR (Bombus terrestris, UniProt A0A9B0BGM1+A0A9B0F4H3+A0A9B2JDZ7+A0A9B2JMX7)
[3] = biological target: T2, Btα1/Btα8/Btβ1 nAChR (Bombus terrestris, UniProt A0A9B0BGM1+A0A9B0F4H3+A0A9B2JDZ7)
T2 sequence (A0A9B0F4H3 44-615): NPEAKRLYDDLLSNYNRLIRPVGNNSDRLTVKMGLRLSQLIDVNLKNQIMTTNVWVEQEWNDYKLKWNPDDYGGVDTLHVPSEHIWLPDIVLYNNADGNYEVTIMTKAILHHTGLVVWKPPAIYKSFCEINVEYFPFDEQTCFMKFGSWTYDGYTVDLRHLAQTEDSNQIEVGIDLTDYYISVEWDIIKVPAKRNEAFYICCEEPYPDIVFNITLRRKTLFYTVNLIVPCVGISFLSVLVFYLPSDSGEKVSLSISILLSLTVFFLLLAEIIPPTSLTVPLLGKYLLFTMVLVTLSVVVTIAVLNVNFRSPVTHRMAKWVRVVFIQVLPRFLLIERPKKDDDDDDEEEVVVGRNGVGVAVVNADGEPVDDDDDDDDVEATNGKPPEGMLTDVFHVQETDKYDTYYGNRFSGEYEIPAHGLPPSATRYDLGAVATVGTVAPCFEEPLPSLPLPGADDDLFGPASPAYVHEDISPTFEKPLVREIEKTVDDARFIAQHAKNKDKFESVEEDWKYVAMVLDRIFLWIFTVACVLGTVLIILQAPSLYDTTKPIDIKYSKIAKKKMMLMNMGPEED
T2 sequence (A0A9B2JDZ7 22-535): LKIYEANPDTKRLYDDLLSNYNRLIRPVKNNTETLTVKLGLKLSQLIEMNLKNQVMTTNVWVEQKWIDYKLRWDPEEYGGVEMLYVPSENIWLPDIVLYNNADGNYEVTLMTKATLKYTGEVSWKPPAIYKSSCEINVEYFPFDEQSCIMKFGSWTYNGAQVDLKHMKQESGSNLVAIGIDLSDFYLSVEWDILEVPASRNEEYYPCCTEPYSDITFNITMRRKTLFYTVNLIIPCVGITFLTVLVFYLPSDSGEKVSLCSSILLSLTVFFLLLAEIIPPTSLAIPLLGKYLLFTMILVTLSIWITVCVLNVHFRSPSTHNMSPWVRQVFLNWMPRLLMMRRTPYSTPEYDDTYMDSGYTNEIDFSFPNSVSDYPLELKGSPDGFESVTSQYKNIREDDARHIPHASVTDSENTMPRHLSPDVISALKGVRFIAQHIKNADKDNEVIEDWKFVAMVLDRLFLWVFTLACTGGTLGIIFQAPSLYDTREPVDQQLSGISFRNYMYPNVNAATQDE
T2 sequence (A0A9B0BGM1 19-519): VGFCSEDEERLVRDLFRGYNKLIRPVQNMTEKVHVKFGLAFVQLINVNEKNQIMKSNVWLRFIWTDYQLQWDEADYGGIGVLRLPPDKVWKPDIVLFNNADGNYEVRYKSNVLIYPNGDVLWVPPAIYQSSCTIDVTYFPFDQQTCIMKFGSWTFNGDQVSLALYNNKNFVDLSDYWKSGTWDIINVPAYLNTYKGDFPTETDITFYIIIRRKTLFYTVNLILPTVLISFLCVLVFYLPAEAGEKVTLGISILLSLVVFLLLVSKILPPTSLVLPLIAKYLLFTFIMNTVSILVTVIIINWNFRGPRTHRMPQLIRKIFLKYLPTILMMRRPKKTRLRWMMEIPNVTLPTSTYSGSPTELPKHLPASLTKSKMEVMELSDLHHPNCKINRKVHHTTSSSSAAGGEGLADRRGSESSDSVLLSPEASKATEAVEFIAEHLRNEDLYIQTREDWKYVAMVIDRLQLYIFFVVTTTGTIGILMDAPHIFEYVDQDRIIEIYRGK

[4] = biological target: Amα1/Amα2/Amα8/Amβ1 nAChR (Apis mellifera, UniProt A0A7M7MMZ9+A0A8U0WQ70+A0A8U0WQC0+A0A8U0WQD1)
Chain of Amα1/Amα2/Amα8/Amβ1 nAChR (A0A8U0WQD1 18-541, one chain of several): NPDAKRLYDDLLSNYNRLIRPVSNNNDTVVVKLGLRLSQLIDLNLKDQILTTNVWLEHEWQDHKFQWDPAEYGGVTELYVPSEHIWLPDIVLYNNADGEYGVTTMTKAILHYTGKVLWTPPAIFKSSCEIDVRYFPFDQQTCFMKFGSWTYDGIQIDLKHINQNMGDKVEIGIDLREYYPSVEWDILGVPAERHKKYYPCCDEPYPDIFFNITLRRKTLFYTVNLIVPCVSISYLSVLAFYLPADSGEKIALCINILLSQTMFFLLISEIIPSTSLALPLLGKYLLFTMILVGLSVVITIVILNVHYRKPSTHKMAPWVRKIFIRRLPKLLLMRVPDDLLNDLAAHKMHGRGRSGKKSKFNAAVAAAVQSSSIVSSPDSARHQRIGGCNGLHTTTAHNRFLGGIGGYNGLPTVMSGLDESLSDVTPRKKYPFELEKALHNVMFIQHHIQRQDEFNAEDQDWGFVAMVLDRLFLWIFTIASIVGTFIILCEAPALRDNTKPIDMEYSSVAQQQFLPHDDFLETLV

Chain of Btα1/Btα2/Btα8/Btβ1 nAChR (A0A9B2JMX7 18-544, one chain of several): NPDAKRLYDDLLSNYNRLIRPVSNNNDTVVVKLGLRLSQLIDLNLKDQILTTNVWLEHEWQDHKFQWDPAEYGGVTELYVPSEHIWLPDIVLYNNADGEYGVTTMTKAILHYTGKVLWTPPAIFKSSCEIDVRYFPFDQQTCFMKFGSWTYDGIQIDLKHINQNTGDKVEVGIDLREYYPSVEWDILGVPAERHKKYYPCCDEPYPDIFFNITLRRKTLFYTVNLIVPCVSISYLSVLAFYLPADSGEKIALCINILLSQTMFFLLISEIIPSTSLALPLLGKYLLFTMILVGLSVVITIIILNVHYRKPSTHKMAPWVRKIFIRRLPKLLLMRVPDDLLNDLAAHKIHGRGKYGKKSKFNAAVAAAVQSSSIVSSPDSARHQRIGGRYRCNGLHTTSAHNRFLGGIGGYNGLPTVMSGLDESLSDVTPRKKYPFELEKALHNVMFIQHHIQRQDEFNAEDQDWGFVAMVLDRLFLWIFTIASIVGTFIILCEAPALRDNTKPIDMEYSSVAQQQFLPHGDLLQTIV

- pEC50 [1]: 5.94
- pEC50 [2]: 5.66
- pEC50 [3]: 5.80
- pEC50 [4]: 5.72
Structure (SMILES): CC(=O)OCC[N+](C)(C)C [Acetylcholine]
